Results as given in the CombiSolv-Exp solvation set (Vermeire and Green 2021).

Assay: solvent given as SMILES
[1] = in CCCCCCCCC=CCCCCCCCC(=O)OCC(COC(=O)CCCCCCCC=CCCCCCCCC)OC(=O)CCCCCCCC=CCCCCCCCC

What does the source list for `NC(=O)c1ccccc1O`?
solvation free energy, 298 K (in C1CCOC1): -13.2 kcal/mol; solvation free energy, 298 K (in C1COCCO1): -13 kcal/mol; solvation free energy, 298 K (in CC(C)(C)O): -12.1 kcal/mol; solvation free energy, 298 K (in CC(C)=O): -13 kcal/mol; solvation free energy, 298 K (in CC(C)CCO): -11.9 kcal/mol; solvation free energy, 298 K (in CC(C)CO): -11.9 kcal/mol; solvation free energy, 298 K (in CC(C)O): -12.2 kcal/mol; solvation free energy, 298 K (in CC(C)OCCO): -12.8 kcal/mol; solvation free energy, 298 K (in CC(O)COC(C)(C)C): -12.6 kcal/mol; solvation free energy, 298 K (in CCC(C)O): -12.2 kcal/mol; solvation free energy, 298 K (in CCCC(C)O): -12.1 kcal/mol; solvation free energy, 298 K (in CCCCCCCCCCO): -11.6 kcal/mol; solvation free energy, 298 K (in CCCCCCCCO): -11.7 kcal/mol; solvation free energy, 298 K (in CCCCCCCO): -11.8 kcal/mol; solvation free energy, 298 K (in CCCCCCO): -12 kcal/mol; solvation free energy, 298 K (in CCCCCO): -12 kcal/mol; solvation free energy, 298 K (in CCCCO): -12.1 kcal/mol; solvation free energy, 298 K (in CCCCOC(C)=O): -12.3 kcal/mol; solvation free energy, 298 K (in CCCCOCCCC): -10.5 kcal/mol; solvation free energy, 298 K (in CCCCOCCO): -12.6 kcal/mol; solvation free energy, 298 K (in CCCO): -12.3 kcal/mol; solvation free energy, 298 K (in CCCOC(C)=O): -12.4 kcal/mol; solvation free energy, 298 K (in CCCOCCO): -12.8 kcal/mol; solvation free energy, 298 K (in CCO): -12.5 kcal/mol; solvation free energy, 298 K (in CCOC(C)=O): -12.6 kcal/mol; solvation free energy, 298 K (in CCOCCO): -13 kcal/mol; solvation free energy, 298 K (in CO): -12.7 kcal/mol; solvation free energy, 298 K (in COC(C)=O): -12.8 kcal/mol; solvation free energy, 298 K (in COC(C)CCO): -12.7 kcal/mol; solvation free energy, 298 K (in Fc1ccccc1): -10.6 kcal/mol; solvation free energy, 298 K (in O): -10.4 kcal/mol

Which “solvation free energy, 298 K” value (in O) does the source give for `COP(=O)(OC)OC` here?
Its value is -8.7 kcal/mol.

What does the source list for `ClCC(Cl)Cl`?
solvation free energy, 298 K (in CCCCCCCCO): -4.63 kcal/mol; solvation free energy, 298 K (in ClC(Cl)(Cl)Cl): -5.06 kcal/mol; solvation free energy, 298 K (in ClC(Cl)Cl): -5.28 kcal/mol; solvation free energy, 298 K (in ClCCCl): -5.47 kcal/mol; solvation free energy, 298 K (in O): -1.99 kcal/mol

For `c1ccc2c(c1)OCCOCCOCCOCCO2`, which “solvation free energy, 298 K” value (in Cc1cccc(C)c1) is on record?
Its value is -14.8 kcal/mol.

And the “solvation free energy, 298 K” value (in O)?
Its value is -14.4 kcal/mol.

For `CCOc1ccc(C(=O)N(O)c2ccc(C)cc2)cc1`, which “solvation free energy, 298 K” value (in O) is on record?
The value was -12.4 kcal/mol.

Which “solvation free energy, 298 K” value (in O) does the source give for `CC(C)(C)C(=O)CC(=O)C(C)(C)C` here?
Its value is -4.43 kcal/mol.

With `CC(=O)CC(=O)C(F)(F)F` as the compound, how does the “solvation free energy, 298 K” value (in O) read?
Its value is -4.91 kcal/mol.

Which “solvation free energy, 298 K” value (in CCCCCCCCO) does the source give for `FC(Cl)C(F)(F)F` (configuration not stated) here?
The value was -1.67 kcal/mol.

And the “solvation free energy, 298 K” value (in CN1CCCC1=O)?
The value was -2.39 kcal/mol.

What about the “solvation free energy, 298 K” value (in CN(C)C=O) of the same compound?
The value was -2.44 kcal/mol.

And the “solvation free energy, 298 K” value (in O)?
The value was 0.79 kcal/mol.

Which results are given for `ClC1C(Cl)C(Cl)C(Cl)C(Cl)C1Cl` (configuration not stated)?
solvation free energy, 298 K [1]: -11.2 kcal/mol; solvation free energy, 298 K (in CCCCCCCCO): -10.9 kcal/mol

Which “solvation free energy, 298 K” value (in O) does the source give for `CN(CC(F)(F)F)c1ccccc1` here?
Its value is -1.92 kcal/mol.

Which results are given for `Clc1c(Cl)c(Cl)c(-c2c(Cl)c(Cl)c(Cl)c(Cl)c2Cl)c(Cl)c1Cl`?
solvation free energy, 298 K [1]: -14.6 kcal/mol; solvation free energy, 298 K (in O): -3.05 kcal/mol

Which “solvation free energy, 298 K” value (in O) does the source give for `CC(C)OC(=O)c1ccccc1C(=O)OC(C)C` here?
Its value is -7.42 kcal/mol.

Which “solvation free energy, 298 K” value (in CCCCCCCCO) does the source give for `ClC1=C(Cl)C2(Cl)C3C4C=CC(C4)C3C1(Cl)C2(Cl)Cl` (configuration not stated) here?
Its value is -11.3 kcal/mol.

And the “solvation free energy, 298 K” value (in O)?
The value was -3.75 kcal/mol.

Which “solvation free energy, 298 K” value (in O) does the source give for `CC(C)CC(=O)O` here?
The value was -6.09 kcal/mol.

Which results are given for `CC(C)CBr`?
solvation free energy, 298 K (in C=CCCCCCCCCCCCCCC): -3.98 kcal/mol; solvation free energy, 298 K (in O): -0.03 kcal/mol

For `Brc1ccc(Br)cc1`, which “solvation free energy, 298 K” value (in CC(C)(C)O) is on record?
Its value is -6.86 kcal/mol.

What about the “solvation free energy, 298 K” value (in CC(C)CCO) of the same compound?
Its value is -7.01 kcal/mol.

And the “solvation free energy, 298 K” value (in CC(C)CO)?
Its value is -6.92 kcal/mol.

And the “solvation free energy, 298 K” value (in CCC(C)O)?
The value was -6.94 kcal/mol.

And the “solvation free energy, 298 K” value (in CCCC(C)O)?
The value was -6.98 kcal/mol.

And the “solvation free energy, 298 K” value (in CCCCCC)?
The value was -7.25 kcal/mol.

And the “solvation free energy, 298 K” value (in CCCCCCC)?
Its value is -7.55 kcal/mol.

And the “solvation free energy, 298 K” value [1]?
The value was -7.01 kcal/mol.

And the “solvation free energy, 298 K” value (in CCCCCCCCO)?
Its value is -7.11 kcal/mol.

What about the “solvation free energy, 298 K” value (in CCCCOCCCC) of the same compound?
The value was -7.74 kcal/mol.

And the “solvation free energy, 298 K” value (in CCOCC)?
Its value is -8.21 kcal/mol.

And the “solvation free energy, 298 K” value (in COC(C)(C)C)?
Its value is -7.73 kcal/mol.

What about the “solvation free energy, 298 K” value (in ClC(Cl)(Cl)Cl) of the same compound?
Its value is -7.9 kcal/mol.

With `C=C(C)C1CC=C(C)C(OC(C)=O)C1` (configuration not stated) as the compound, how does the “solvation free energy, 298 K” value (in O) read?
Its value is -4 kcal/mol.

With `Clc1cc(-c2cc(Cl)c(Cl)c(Cl)c2)cc(Cl)c1Cl` as the compound, how does the “solvation free energy, 298 K” value (in O) read?
The value was -4.11 kcal/mol.

With `CCCCC(=O)CC(=O)CCCC` as the compound, how does the “solvation free energy, 298 K” value (in O) read?
The value was -4.13 kcal/mol.

For `O=C(O)c1cccc([N+](=O)[O-])c1C(=O)O`, which “solvation free energy, 298 K” value (in C1CCOC1) is on record?
Its value is -19.1 kcal/mol.

What about the “solvation free energy, 298 K” value (in C1COCCO1) of the same compound?
Its value is -18.7 kcal/mol.

And the “solvation free energy, 298 K” value (in CC(C)=O)?
Its value is -18.5 kcal/mol.

And the “solvation free energy, 298 K” value (in CC(C)CO)?
The value was -17.8 kcal/mol.

What about the “solvation free energy, 298 K” value (in CC(C)O) of the same compound?
Its value is -18.4 kcal/mol.

What about the “solvation free energy, 298 K” value (in CCC(C)O) of the same compound?
Its value is -18.1 kcal/mol.

What about the “solvation free energy, 298 K” value (in CCCCCCCO) of the same compound?
Its value is -17.6 kcal/mol.

And the “solvation free energy, 298 K” value (in CCCCCCO)?
Its value is -17.7 kcal/mol.

And the “solvation free energy, 298 K” value (in CCCCCO)?
Its value is -17.8 kcal/mol.

What about the “solvation free energy, 298 K” value (in CCCCO) of the same compound?
The value was -17.9 kcal/mol.

What about the “solvation free energy, 298 K” value (in CCCO) of the same compound?
The value was -18.3 kcal/mol.

What about the “solvation free energy, 298 K” value (in CCOC(C)=O) of the same compound?
Its value is -17.3 kcal/mol.

And the “solvation free energy, 298 K” value (in COC(C)=O)?
Its value is -18.2 kcal/mol.

And the “solvation free energy, 298 K” value (in O)?
Its value is -17.3 kcal/mol.
